This passage reports MIC and CC50 results from ChEMBL document CHEMBL4513155, “CO-ADD screening of University of Sydney (Australia) compounds” (2021).

≈ marks a conversion by molar mass, not a printed value.

In one assay the test system is Pseudomonas aeruginosa. Nature of the assay: microbe, parasite or virus in culture. The conditions noted are these: ATCC 27853, 18 h, ASSAY_TEST Inhibition of Bacterial Growth, detection method Absorption (OD600), MEDIA CAMHB, plate type 384well, NBS, CORNING #3640.
The test system of the next assay is Acinetobacter baumannii. Nature of the assay: microbe, parasite or virus in culture. The settings on record: ATCC 19606, 18 h, ASSAY_TEST Inhibition of Bacterial Growth, detection method Absorption (OD600), MEDIA CAMHB, plate type 384well, NBS, CORNING #3640.
The next assay has as its system HEK293. Nature of the assay: cells. The conditions noted are these: Homo sapiens, ATCC CRL1573, HEK293; ASSAY_TEST Inhibition of Cell Viability; detection method Resazurin; Fluorescence (ex560/em590); MEDIA DMEM with 10% FBS; plate type 384well; TC; CORNING #3712; time 18 hr. Format: functional.
For a further assay, the system named is Escherichia coli. Nature of the assay: microbe, parasite or virus in culture. The settings on record: ATCC 25922, 18 h, ASSAY_TEST Inhibition of Bacterial Growth, detection method Absorption (OD600), MEDIA CAMHB, plate type 384well, NBS, CORNING #3640.
In another assay the test system is Klebsiella pneumoniae. Nature of the assay: microbe, parasite or virus in culture. The conditions noted are these: ATCC 700603, 18 h, ASSAY_TEST Inhibition of Bacterial Growth, detection method Absorption (OD600), MEDIA CAMHB, plate type 384well, NBS, CORNING #3640.
For the next assay, the system named is Candida albicans. Nature of the assay: microbe, parasite or virus in culture. The settings on record: ATCC 90028, ASSAY_TEST Inhibition of Fungal Growth, detection method Absorption (OD530), plate type 384well, NBS, CORNING #3640.
A further assay deals with Staphylococcus aureus. Nature of the assay: microbe, parasite or virus in culture. The settings on record: ATCC 43300, 18 h, ASSAY_TEST Inhibition of Bacterial Growth, detection method Absorption (OD600), MEDIA CAMHB, plate type 384well, NBS, CORNING #3640.

Description for Acinetobacter baumannii: Antibacterial activity against Acinetobacter baumannii ATCC 19606 (CO-ADD:GN_034); MIC in CAMBH media using NBS plates, by OD600
Description for Candida albicans: Antifungal activity against Candida albicans ATCC 90028 (CO-ADD:FG_001); MIC in YNB media using NBS plates, by OD630
Description for Cryptococcus neoformans: Antifungal activity against Cryptococcus neoformans H99 ATCC 208821 (CO-ADD:FG_002); MIC in YNB media using NBS plates, by Resazurin OD(600-570)
Description for Escherichia coli: Antibacterial activity against Escherichia coli ATCC 25922 (CO-ADD:GN_001); MIC in CAMBH media using NBS plates, by OD(600)
Description for Klebsiella pneumoniae: Antibacterial activity against Klebsiella pneumoniae MDR ATCC 70063 (CO-ADD:GN_003); MIC in CAMBH media using NBS plates, by OD(600)
Description for Pseudomonas aeruginosa: Antibacterial activity against Pseudomonas aeruginosa ATCC 27853 (CO-ADD:GN_042); MIC in CAMBH media using NBS plates, by OD(600)
Description for Staphylococcus aureus: Antibacterial activity against Staphylococcus aureus MRSA ATCC 43300 (CO-ADD:GP_020); MIC in CAMBH media, using NBS plates, by OD(600)

In the case of `Clc1ccc(-c2nnc3cncc(OCCc4ccccc4)n23)cc1`, the MIC was more than 32 µg/mL in the assay on Pseudomonas aeruginosa; more than 32 µg/mL against Acinetobacter baumannii; more than 32 µg/mL against Escherichia coli; more than 32 µg/mL in the assay on Klebsiella pneumoniae; 0.5 µg/mL (≈ 1.43 µM) with Candida albicans; more than 32 µg/mL in the assay with Staphylococcus aureus. Further, in the assay on Cryptococcus neoformans, the MIC is more than 32 µg/mL. Besides, the 50% cytotoxic concentration (CC50) (commonly the concentration giving 50% cytotoxicity) in the assay with HEK293 was determined as 21.7 µg/mL (≈ 61.9 µM).
Regarding `[O-][Cl+3]([O-])([O-])O.[O-][Cl+3]([O-])([O-])O.[Zn].c1ccc2c(-n3cc(CN4CCCNCCN(Cc5cn(-c6cccc7ccccc67)nn5)CCCNCC4)nn3)cccc2c1`, the MIC is more than 32 µg/mL in the assay on Pseudomonas aeruginosa; more than 32 µg/mL in the assay with Acinetobacter baumannii; more than 32 µg/mL in the assay with Escherichia coli; more than 32 µg/mL against Klebsiella pneumoniae; more than 32 µg/mL in the assay on Candida albicans; 4 µg/mL against Staphylococcus aureus. In the assay on Cryptococcus neoformans, the MIC came to 4 µg/mL. The molecule also returned a CC50 in the assay with HEK293 of 4.89 µg/mL.
`CCN1C(=O)c2cccc3c(-c4c[n+](CCN5CCCNCCN(CC[n+]6cc(COc7ccc8c(c7)CC[C@@H]7[C@@H]8CC[C@]8(C)C(=O)CC[C@@H]78)[nH]n6)CCCNCC5)n[nH]4)ccc(c23)C1=O.[O-][Cl+3]([O-])([O-])O.[O-][Cl+3]([O-])([O-])O.[Zn+2]`: the MIC in the assay on Pseudomonas aeruginosa was more than 32 µg/mL; in the assay with Acinetobacter baumannii, more than 32 µg/mL; in the assay with Escherichia coli, more than 32 µg/mL; with Klebsiella pneumoniae, more than 32 µg/mL; in the assay on Candida albicans, more than 32 µg/mL; against Staphylococcus aureus, 16 µg/mL. The MIC in the assay with Cryptococcus neoformans stood at 32 µg/mL. The molecule further registered a 50% cytotoxic concentration (CC50) with HEK293 of more than 32 µg/mL.
